In patent US20050228016A1, “TETRAHYDROQUINOLINES FOR MODULATING THE EXPRESSION OF EXOGENOUS GENES VIA AN ECDYSONE RECEPTOR COMPLEX” (priority 2002, published 2005):

How the values were obtained:
[1] = target: T1, Gal4DBD/AaEcR (DEF) (Aedes aegypti, UniProt P49880); assay: cell-based; type: cell-based; settings: 33 μM; 3T3 cells; 48 h; average of two wells
T1 construct: The wildtype D, E, and F domains from mosquito Aedes aegypti EcR; expressed in transfected cells; host or cells: 3T3 cells
Experimental: 3T3 cells were trypsinized and plated at 2.5×10^3 cells/well on a 96-well plate. After incubation for 24 h at 37° C. under 5% CO2, cells were transfected with the Gal4DBD/AaEcR (DEF) gene expression cassette and the reporter plasmid, pFRLuc, containing a 5× GAL4 response element and the firefly luciferase gene in serum free media using Superfect (Qiagen). After transfection for 4 h at 37° C., the cells were treated with ligand in serum media. […] Single dose testing was performed at 33 μM.

[2] = target: T2, Bombyx mori EcR (VP16-BmEcR, CVBE) (Bombyx mori, UniProt P49881); assay: Z3 assay (HEK-293 clone Z3 with CVBE and 6x EcRE LacZ, β-galactosidase reporter); type: cell-based; settings: 48 h, average of two wells
T2 construct: expressed in transfected cells
T2 sequence (P49881 86-606): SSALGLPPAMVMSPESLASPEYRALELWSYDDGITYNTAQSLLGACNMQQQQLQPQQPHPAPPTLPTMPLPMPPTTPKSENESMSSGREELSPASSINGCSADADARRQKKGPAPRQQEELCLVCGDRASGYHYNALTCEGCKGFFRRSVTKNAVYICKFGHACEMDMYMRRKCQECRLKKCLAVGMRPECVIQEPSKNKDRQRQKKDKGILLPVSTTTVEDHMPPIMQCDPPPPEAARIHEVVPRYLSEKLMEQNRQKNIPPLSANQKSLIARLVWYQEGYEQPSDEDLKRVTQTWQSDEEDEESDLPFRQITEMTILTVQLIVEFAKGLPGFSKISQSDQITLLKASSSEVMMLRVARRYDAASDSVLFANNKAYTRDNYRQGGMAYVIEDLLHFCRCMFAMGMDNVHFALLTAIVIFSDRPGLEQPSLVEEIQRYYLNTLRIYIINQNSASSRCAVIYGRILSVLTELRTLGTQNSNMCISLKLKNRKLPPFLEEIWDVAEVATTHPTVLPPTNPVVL
Source text: Dr. F. Gage provided a population of stably transformed cells containing CVBE and 6× EcRE as described in (Suhr et. al. 1998). Human 293 kidney cells, also referred to as HEK-293 cells, were sequentially infected with retroviral vectors encoding first the switch construct CVBE, and subsequently the reporter construct 6× EcRE Lac Z. The switch construct contained the coding sequence for amino acids 26-546 from Bombyx nori EcR (BE) (Iatrou) inserted in frame and downstream of the VP16 transactivation domain (VBE). A synthetic ATG start codon was placed under the control of cytomegalovirus (CVBE) immediate early promoter and flanked by long terminal repeats (LTR). The reporter-construct contained six copies of the ecdysone response element (EcRE) binding site placed upstream of LacZ and flanked on both sides with LTR sequences (6× EcRE).
Dilution cloning was used to isolate individual clones. Clones were selected using 450 μg/ml G418 and 100 ng/ml puromycin. Individual clones were evaluated based on their response in the presence and absence of test ligands.
Human 293 kidney cells stably transformed with CVBE and 6× EcRE lack were maintained in Minimum Essential Medium (Mediates, 10-010-CV) containing 10%.FBS (Life Technologies, 26140-087),[…] G418 (Mediates, 30-234-CR), and […] (Sigma, P-7255), at 37° C. in an atmosphere containing 5% CO2 and were subculture when they reached 75% confluence.
Z3 cells were seeded into 96-well tissue culture plates at a concentration of 2.5×10^3 cells per well and incubated at 37° C. in 5% CO2 for twenty-four hours. Stock solutions of ligands were prepared in DMSO. Ligand stock solutions were diluted 100.fold in media and 50 μL of this diluted ligand solution (33 μM) was added to cells.
Reporter gene expression was evaluated 48 hours after treatment of cells, β-galactosidase activity was measured using Gal Screen™ bioluminescent reporter gene assay system from Tropix (GSY1000).
Flanking both constructs are long terminal repeats, G418 and puromycin are selectable markers, CMV is the cytomegalovirus promoter, VBE is coding sequence for amino acids 26-546 from Bombyx mori EcR inserted downstream of the VP16 transactivation domain, 6× EcRE is six copies of the ecdysone response element, lacZ encodes for the reporter enzyme β-galactosidase.

T1 sequence (P28704 286-520 A311G/G315S/G445S/I449V): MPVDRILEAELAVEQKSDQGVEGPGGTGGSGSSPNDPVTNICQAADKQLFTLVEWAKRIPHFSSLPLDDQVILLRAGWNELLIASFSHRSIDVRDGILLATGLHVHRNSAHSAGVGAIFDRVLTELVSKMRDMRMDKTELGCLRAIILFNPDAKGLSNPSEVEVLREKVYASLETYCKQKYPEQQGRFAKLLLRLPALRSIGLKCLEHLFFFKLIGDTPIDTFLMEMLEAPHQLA
T1 sequence (P49880 405-776): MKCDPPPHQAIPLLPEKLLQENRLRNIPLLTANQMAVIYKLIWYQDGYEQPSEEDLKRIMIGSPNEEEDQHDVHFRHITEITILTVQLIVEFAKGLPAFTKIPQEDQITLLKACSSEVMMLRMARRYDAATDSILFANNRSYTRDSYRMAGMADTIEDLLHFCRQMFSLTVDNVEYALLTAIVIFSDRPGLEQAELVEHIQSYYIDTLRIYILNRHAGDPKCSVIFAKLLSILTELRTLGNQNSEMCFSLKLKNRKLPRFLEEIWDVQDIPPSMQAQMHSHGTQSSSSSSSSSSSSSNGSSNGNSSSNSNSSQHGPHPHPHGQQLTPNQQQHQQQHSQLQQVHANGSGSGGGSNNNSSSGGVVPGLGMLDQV

Compound | Fold Induction Average, AA_3T3V1 Assay 33 μM [1] | Fold Induction Average, Z3V1 Assay 33 μM [2]
Cc1ccc(C(=O)N2c3ccccc3C(Nc3ccc(F)cc3)CC2C)cc1 (mixture of isomers) [Compound I-40] | 81 fold | 24 fold
Cc1ccc(C(=O)N2c3ccccc3C(Nc3cccc(Cl)c3)CC2C)cc1 (mixture of isomers) [Compound I-42] | 80 fold | 1 fold
Cc1ccc(C(=O)N2c3ccccc3C(Nc3ccc(Cl)cc3)CC2C)cc1 (mixture of isomers) [Compound I-43] | 114 fold | 3 fold
Cc1ccc(NC2CC(C)N(C(=O)c3ccc(C)cc3)c3ccccc32)cc1 (mixture of isomers) [Compound I-45] | 67 fold | 3 fold
COc1ccc(NC2CC(C)N(C(=O)c3ccc(C)cc3)c3ccccc32)cc1 (mixture of isomers) [Compound I-47] | 81 fold | 2 fold
CCCCCCC(=O)N1c2ccccc2[C@@H](Nc2ccccc2)C[C@@H]1C (relative stereo) [Compound I-1] | – | 10 fold
C[C@H]1C[C@@H](Nc2ccc(F)cc2)c2cc(F)ccc2N1C(=O)c1ccc(F)c(C(F)(F)F)c1 (relative stereo) [Compound I-4] | 4 fold | 1 fold
Cc1ccc(C(=O)N2c3ccccc3[C@H](Nc3ccccc3)C[C@@H]2C)cc1F (relative stereo) [Compound I-19] | 70 fold | 1 fold
Cc1ccc(N[C@H]2C[C@H](C)N(C(=O)c3ccc(F)c(F)c3)c3ccc(C)cc32)cc1 (relative stereo) [Compound I-21] | 52 fold | 1 fold
Cc1ccc(N[C@H]2C[C@H](C)N(C(=O)c3ccc(C(F)(F)F)c(F)c3)c3ccc(C)cc32)cc1 (relative stereo) [Compound I-23] | 87 fold | 1 fold
C[C@H]1C[C@@H](Nc2ccc(F)cc2)c2cc(F)ccc2N1C(=O)c1ccc(F)c(F)c1 (relative stereo) [Compound I-24] | 132 fold | 7 fold
C[C@H]1C[C@@H](Nc2ccc(F)cc2)c2cc(F)ccc2N1C(=O)c1ccc(C(F)(F)F)c(F)c1 (relative stereo) [Compound I-25] | 147 fold | 1 fold
CCc1ccc(C(=O)N2c3ccc(C)cc3[C@@H](Nc3ccc(C)cc3)C[C@@H]2C)cc1 (relative stereo) [Compound I-64] | 681 fold | 1 fold
C[C@H]1C[C@H](Nc2ccc(F)cc2)c2cc(F)ccc2N1C(=O)c1ccc(Cl)cc1 (relative stereo) [Compound I-65] | 345 fold | 82 fold
CCc1ccc(C(=O)N2c3ccc(F)cc3[C@@H](Nc3ccc(F)cc3)C[C@@H]2C)cc1 (relative stereo) [Compound I-66] | 813 fold | 206 fold
CCCC(=O)N1c2ccccc2C(N(C(=O)c2cccc(OC)c2)c2ccccc2)CC1C (centres unmarked) [Compound I-160] | – | 1 fold
CC1CC(Nc2ccccc2)c2ccccc2N1C(=O)CN1C(=O)CCC1=O (centres unmarked) [Compound I-167] | 1 fold | –
CC1CC(Nc2ccccc2)c2ccccc2N1C(=O)Cc1cccc2ccccc12 (centres unmarked) [Compound I-169] | – | 1 fold
Cc1ccc(NC2CC(C)N(C(=O)c3cccc(F)c3)c3ccc(C)cc32)cc1 (centres unmarked) [Compound I-174] | 1 fold | –
CC1CC(Nc2ccccc2)c2ccccc2N1C(=O)Nc1ccccc1 (centres unmarked) [Compound I-176] | 268 fold | –
COc1ccc(C=CC(=O)N2c3ccccc3C(Nc3ccccc3)CC2C)cc1 (centres unmarked) [Compound I-177] | 126 fold | –

Compound | Fold Induction Average, AA_3T3V1 Assay 33 μM [1] | Fold Induction Average, Z3V1 Assay 33 μM [2]
CC1CC(N(C(=O)C(F)(F)F)c2ccccc2)c2ccccc2N1C(=O)C(F)(F)F (centres unmarked) [Compound I-182] | 1 fold | –
CCCCCC(=O)N1c2ccccc2C(N(C(=O)c2ccccc2F)c2ccccc2)CC1C (centres unmarked) [Compound I-186] | 1 fold | –
Cc1ccc(C(=O)N2c3c(C)cccc3C(Nc3ccccc3C)CC2C)cc1 (centres unmarked) [Compound I-187] | 1 fold | –
CC(=O)N(c1ccc(F)cc1)C1CC(C)N(C(=O)c2ccc(C)c(F)c2)c2ccc(F)cc21 (centres unmarked) [Compound I-195] | 1 fold | –
Cc1cccc(C(=O)N2c3ccccc3C(Nc3ccccc3)CC2C)c1 (centres unmarked) [Compound I-198] | 135 fold | –
CC1CC(Nc2ccccc2)c2ccccc2N1C(=O)c1cccc(F)c1 (centres unmarked) [Compound I-199] | 147 fold | –
COc1cccc(C(=O)N2c3ccccc3C(Nc3ccccc3)CC2C)c1 (centres unmarked) [Compound I-200] | 212 fold | –
CC1CC(Nc2ccccc2)c2ccccc2N1C(=O)c1cccc(C(F)(F)F)c1 (centres unmarked) [Compound I-201] | 71 fold | –
Cc1ccc(NC2CC(C)N(C(=O)c3cccc(F)c3)c3ccc(C)cc32)cc1 (centres unmarked) [Compound I-203] | 3 fold | –
COc1cccc(C(=O)N2c3ccc(C)cc3C(Nc3ccc(C)cc3)CC2C)c1 (centres unmarked) [Compound I-204] | 1 fold | –
Cc1cccc(C(=O)N2c3ccc(F)cc3C(Nc3ccc(F)cc3)CC2C)c1 (centres unmarked) [Compound I-206] | 142 fold | –
CC1CC(Nc2ccc(F)cc2)c2cc(F)ccc2N1C(=O)c1cccc(F)c1 (centres unmarked) [Compound I-207] | 108 fold | –
COc1cccc(C(=O)N2c3ccc(F)cc3C(Nc3ccc(F)cc3)CC2C)c1 (centres unmarked) [Compound I-208] | 989 fold | –
CC1CC(Nc2ccc(F)cc2)c2cc(F)ccc2N1C(=O)c1cccc(C(F)(F)F)c1 (centres unmarked) [Compound I-209] | 384 fold | –
CC1CC(Nc2ccccc2)c2ccccc2N1C(=O)Nc1ccccc1 (centres unmarked) [Compound I-211] | 638 fold | –
CC1CC(Nc2ccccc2)c2ccccc2N1C(=O)Nc1ccc(Cl)cc1 (centres unmarked) [Compound I-212] | 367 fold | –
CC1CC(Nc2ccccc2)c2ccccc2N1C(=O)Nc1cccc(Cl)c1 (centres unmarked) [Compound I-213] | 527 fold | –
Cc1cccc(NC(=O)N2c3ccccc3C(Nc3ccccc3)CC2C)c1 (centres unmarked) [Compound I-215] | 1052 fold | –
Cc1ccc(NC2CC(C)N(C(=O)Nc3ccccc3)c3ccc(C)cc32)cc1 (centres unmarked) [Compound I-216] | 2 fold | –
Cc1ccc(NC2CC(C)N(C(=O)Nc3ccc(Cl)cc3)c3ccc(C)cc32)cc1 (centres unmarked) [Compound I-217] | 8 fold | –
trans-2-methyl-6-fluoro-1-(3-fluoro-4-methylbenzoyl)-4-(4-methylphenylamino), 4-(3-fluoro-4-methylbenzoyl)-1,2,3,4-tetrahydroquinoline [Compound I-196] | 1 fold | –
